Assay results reported in publication PMC11547840, “The Intestinal Barrier Protective Effect of Indole Aldehyde Derivatives on Acute Toxoplasma gondii Infection” (Molecules, 2024).

Key:
[1] = tested on: IEC-6 cells; assay: MTT cytotoxicity assay in IEC-6 cells; format: cell-based; conditions: MTT; concentration required to reduce IEC-6 cell growth by 50%; 24 h treatment; read-out: IC50 in IEC-6 Cells
Description: (§1) Anti-T. gondii activity and cytotoxicity of indole derivatives in vitro were evaluated by MTT assay (Solarbio, Beijing, China) using a slightly modified version of the procedure of Shang et al.. IEC-6 cells were seeded onto the 96-well plates (2 × 10^3/well) for 24 h to obtain the full monolayer, and then the host cells were infected with T. gondii (parasite: cell = 3:1) in complete medium. After 24 h, cells were washed to remove any extra parasites and then incubated with different concentrations (20, 200, 500 and 1000 μm) of […]. […] After 24 h of treatment, MTT solution was added directly to the culture wells and then incubated for 4 h at 37 °C. The optical absorbance was measured at a wavelength of 548 nm using a microplate reader (SpectraMax M2, Molecular Devices, Sunnyvale, CA, USA). Giemsa staining was used to observe the changes in cell morphology and the proliferation of T. gondii-infected cells. IEC-6 (1 × 10^5 cells/well) was inoculated into 24-well plates containing round coverslip, and after the cells were attached to the wall, T. gondii (3 × 10^5 cells/well) was added to infect the cells for 3 h. After the culture medium was discarded, PBS was added to remove the uninvaded tachyzoites. […] After discarding the supernatant, the cells were washed with PBS and completely aspirated, and then fixed by adding 0.5 mL of methanol for 3 min. Giemsa staining solution was added and shaken slightly to make the staining uniform. Coverslips were rinsed with distilled water to replace the staining solution, and finally, the slices were sealed with neutral gum and air-dried.

[2] = tested on: T. gondii; assay: MTT anti-T. gondii activity in T. gondii-infected IEC-6 cells; format: cell-based, Toxoplasma gondii; conditions: MTT; concentration required to reduce T. gondii-infected IEC-6 cell growth by 50%; 24 h treatment; read-out: IC50 in T. gondii
Description: as §1

[3] = tested on: T. gondii; assay: Giemsa staining: cell infection rate and intracellular tachyzoites in IEC-6 cells; format: cell-based, Toxoplasma gondii; conditions: IEC-6 cells infected 3 h, drug 12 h at the IC50 value of the cells
Description: as §1

[4] = tested on: T. gondii; assay: In vivo anti-T. gondii activity, peritoneal tachyzoite count by Trypan Blue; design: species or system Toxoplasma gondii; conditions: peritoneal cavity of KM female mice, i.p. 2 × 10^3 tachyzoites; 100 mg/kg oral once a day for 6 days; Toxo 12.28 ± 0.39
Excerpt: (§2) For the in vivo study, KM female mice were divided into groups consisting of six animals each and then intraperitoneally injected with 2 × 10^3 tachyzoites. […] On the last day, heart blood samples were collected after anesthesia to separate the serum, and after mice were sacrificed by cervical dislocation, mice were dissected to obtain organs and tissues. The tachyzoites were harvested from mice peritoneal cavities to determine the level of tachyzoite proliferation. The peritoneal fluid was collected twice; the first time, it was centrifuged at 500 rpm for 10 min, then the supernatant was centrifuged at 2500 rpm for 20 min, discarded, and the worm precipitate was collected at the bottom, and mixed with an appropriate amount of physiological saline. A total of 10 μL of T. gondii suspension was mixed with 10 μL of 4% Trypan blue staining solution in a 1.5 mL centrifuge tube.

[5] = Small intestine histology and pathology scoring of T. gondii-infected mice; format: in vivo; conditions: 100 mg/kg oral once a day for 6 days
Excerpt: as §2
The histology research includes apparent pathological change score, H&E staining and histopathological scores of tissue, as shown in Table 4 and Table 5. In detail, the obtained small intestine tissues were fixed in formalin solution and embedded in paraffin wax after gradual dehydration with different concentrations of ethanol. The paraffin fast was sectioned to a thickness of 5 μm, rehydrated and stained with hematoxylin and eosin, respectively, and finally permeabilized with xylene and sealed with neutral gum. A light microscope was used to observe and collect pictures, and the degree of damage to the small intestinal tissues was assessed according to Chiu’s six-grade scale.

[6] = tested on: small intestine of mice with T. gondii infection; assay: Small intestine and serum biochemical parameters (GSH, MDA, NO, DAO) of T. gondii-infected mice; format: in vivo; conditions: 100 mg/kg oral once a day for 6 days
Excerpt: as §2
The GSH was measured according to the method in [58]. The intestine homogenate was mixed with half volume trichloroacetic acid (20%, w/v) and centrifuged at 4000 rpm for 10 min. Then, phosphate buffer (phosphate 0.3 mol/L, pH 7.5) and 5,5-dithio-bis-(2-nitrobenzoic acid) (0.04%, w/v) were added to the separated supernatant and mixed thoroughly. After 5 min at room temperature, the absorbance was measured at 412 nm.
MDA was measured by the standard method with minor modifications. The small intestine homogenate supernatant was mixed with thiobarbituric acid (0.5%, w/v) and heated in boiling water bath for 1 h, then cooled quickly and centrifuged at 6000 rpm for 10 min; the absorbance of pink colored supernatant was measured at 532 nm. Tetraethoxypropane replaced the intestine homogenate in the standard sample.
The Greiss method was used to determine the NO content in small intestine tissues and cells. The above small intestine tissue homogenate or IEC-6 cell supernatant was centrifuged at 4 °C and 1500 rpm for 15 min, and the absorbance was measured at 540 nm by adding equal amounts of Griess A and B reagents to the supernatant. The standard used in the NO standard curve was sodium nitrite, and the NO content in the samples was calculated by substituting the absorbance values of the samples into the regression equation of the standard curve.
The DAO evaluation experimental method of Xin Y et al. was adopted, in which mouse heart blood was taken from a 1.5 mL centrifuge tube and centrifuged at 4 °C and 3000× g for 10 min, and the upper layer of serum was taken for measurement. Another 1.5 mL tube was taken and 600 μL of phosphate buffer, 20 μL of horseradish peroxidase, 20 μL of dianisidine dihydrochloride hydrochloride, and 20 μL of 1,5-pentanediamine hydrochloride were added. After that, 100 μL of serum samples to be tested was added, mixed well and heated at 37 °C for 18 h. The absorbance was measured at 436 nm. […]. A total of 100 μL of distilled water was used in the blank tube instead of serum, and the standard used in the standard curve was diamine oxidase. The absorbance value of the experimental samples was substituted into the regression equation of the standard curve to calculate the content of DAO in the serum samples.

[7] = tested on: mice with T. gondii infection; assay: Survival rate of mice with T. gondii infection; format: in vivo; conditions: acute infection; Toxo group died from day seven
Description: All data were expressed as mean ± standard deviation (S.D.) in triplicate. Statistical analyses and graphs were performed using SPSS 16.0 software (SPSS Inc., Chicago, IL, USA) and GraphPad Prism 5.0 (GraphPad Software Inc., San Diego, CA, USA). The method of Kaplan and Meier was used to compare the survival rates of the studied groups. A value of p < 0.05 was considered statistically significant.

Substance: Spiramycin [Spy, reference compound]
- IC50 [1]: 246 ± 5.9 µM
- IC50 [2]: 219 ± 6 µM
- cell infection rate ([3]; Toxo group 49.2%): 27.7%
- number of intracellular tachyzoites ([3]; Toxo group 254): 173
- Number of Tachyzoites [4]: 9.22 ± 1.73 ×10^6
- intestinal barrier damage induced by T. gondii infection (histology, H&E) [5]: showed no abnormalities in the small intestinal tissues
- MDA level in small intestine tissue [6]: effective inhibition of the MDA increase
- survival of mice with T. gondii infection [7]: extended the survival time
